Laboratory results reported in patent US20260138948A1, “N-SUBSTITUTED INDOLES AS 5-HYDROXYTRYPTAMINE (5-HT) SEROTONIN RECEPTOR AGONISTS AND ANTAGONISTS” (Terran Biosciences Inc., priority 2021, published 2026).

How the values were obtained:
C57BL/6J mice = assay: Head-twitch response (HTR) in mice; format: in vivo, mouse; conditions: 10 mg/kg ip, male C57BL/6J mice, 40 min post-dose; FIGS. 2 and 3
Procedure: Head-Twitch Response (HTR). The head-twitch response assay is performed as is known to those of skill in the art using both male and female C57BL/6J mice (3 per treatment). The mice are obtained and are approximately 8 weeks old at the time of the experiments. Compounds are administered via intraperitoneal injection (5 mL/kg) using 0.9% saline as the vehicle. As a positive control, 5-MeO-DMT fumarate (2:1 amine/acid) was utilized. Behavior was videotaped, later scored by two blinded observers, and the results were averaged (Pearson correlation coefficient=0.93).
24 Male C57BL/6J mice (approximately 25 g) were group housed in a stock room. Animals were maintained under a 12 h light/dark cycle, at 23° C. with humidity controlled according to Home Office regulations.
Compounds 1, 2, 4, 151, 93, AAZ literature compound and 5-MeO-DMT (all compounds supplied as free bases) were each formulated in DMSO:saline [10:90] at a concentration of 2 mg/mL to give a dose of 10 mg/kg when administered ip in a 5 mL/kg dosing volume. […]
At T=0 h, groups of 3 mice were dosed intraperitoneally with either Vehicle, Compound 1, Compound 2, Compound 4, Compound 151, Compound 93, AAZ literature compound, or 5-MeO-DMT each at 10 mg/kg. Following dosing, mice were replaced into the observation cages and head twitch behavior was monitored for 40 min after agonist dosing.

5HT2A sensor = conditions: general statement on known hallucinogens and non-hallucinogenic congeners; cited from earlier work
5-HT2A receptor [1] = target: T1, 5-HT2A receptor (Homo sapiens, UniProt P28223); assay: Calcium mobilization assay, agonist format, 5-HT2A; format: cell-based; conditions: % activity relative to control ligand, read-out: 5-HT2A agonist efficacy @10 µM
T1 construct: host or cells: unnamed cell lines
T1 sequence (P28223 whole entry): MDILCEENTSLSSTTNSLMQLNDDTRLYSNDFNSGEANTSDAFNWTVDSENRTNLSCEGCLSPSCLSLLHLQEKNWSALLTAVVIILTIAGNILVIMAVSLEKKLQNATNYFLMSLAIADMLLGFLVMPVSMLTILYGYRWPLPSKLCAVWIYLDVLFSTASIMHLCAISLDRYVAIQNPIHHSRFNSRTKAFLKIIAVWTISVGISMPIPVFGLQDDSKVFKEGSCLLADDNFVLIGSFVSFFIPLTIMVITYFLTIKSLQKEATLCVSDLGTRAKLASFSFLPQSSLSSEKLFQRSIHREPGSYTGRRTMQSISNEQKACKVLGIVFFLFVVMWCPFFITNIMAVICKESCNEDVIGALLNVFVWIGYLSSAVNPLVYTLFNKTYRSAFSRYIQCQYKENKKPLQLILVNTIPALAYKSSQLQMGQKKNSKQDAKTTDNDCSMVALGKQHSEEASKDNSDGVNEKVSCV
Procedure: (§1) Protocol—in vitro testing at select 5-hydroxytryptamine (5-HT; serotonin) receptors was conducted.
(§2) • 1. Cell lines were expanded from freezer stocks according to standard procedures. • 2. Cells were seeded in a total volume of 20 μL into black-walled, clear-bottom, Poly-D-lysine coated 384-well microplates and incubated at 37° C. for the appropriate time prior to testing.
(§3) • 1. Assays were performed in 1× Dye Loading Buffer consisting of 1× Dye, 1× Additive A and • 2.5 mM Probenecid in HBSS/20 mM Hepes. Probenicid was prepared fresh. • 2. Cells were loaded with dye prior to testing. Media was aspirated from cells and replaced with 20 μL Dye Loading Buffer. • 3. Cells were incubated for 30-60 minutes at 37° C.
(§4) • 1. For agonist determination, cells were incubated with sample to induce response. • 2. After dye loading, cells were removed from the incubator and 10 μL HBSS/20 mM Hepes was added. 3× vehicle was included in the buffer when performing agonist dose curves to define the EC80 for subsequent antagonist assays. Cells were incubated for 30 minutes at room temperature in the dark to equilibrate plate temperature. • 3. Intermediate dilution of sample stocks was performed to generate 4× sample in assay buffer. • 4. Compound agonist activity was measured on a FLIPR Tetra (MDS). Calcium mobilization was monitored for 2 minutes and 10 μL 4× sample in HBSS/20 mM Hepes was added to the cells 5 seconds into the assay.
(§5) • 1. Compound activity was analyzed using CBIS data analysis suite (ChemInnovation, CA). • 2. For agonist mode assays, percentage activity is calculated using the following formula: % Activity=100%×(mean RFU of test sample−mean RFU of vehicle control)/(mean MAX RFU control ligand −mean RFU of vehicle control). • 3. For positive allosteric mode assays, percentage modulation was calculated using the following formula: % Modulation=100%×((mean RFU of test sample−mean RFU of EC20 control)/(mean RFU of MAX control ligand −mean RFU of EC20 control)). • 4. For antagonist and negative allosteric modulation mode assays, percentage inhibition is calculated using the following formula: % Inhibition=100%×(1−(mean RFU of test sample−mean RFU of vehicle control)/(mean RFU of EC80 control−mean RFU of vehicle control)).

5-HT2A receptor [2] = target: T1, 5-HT2A receptor; assay: Calcium mobilization assay, antagonist format, 5-HT2A; format: cell-based; conditions: @100 nM; agonist challenge at EC80
Procedure: as §1, §2, §3
(§6) • 1. For antagonist determination, cells were pre-incubated with sample followed by agonist challenge at the EC80 concentration. • 2. Intermediate dilution of sample stocks was performed to generate 3× sample in assay buffer. • 3. After dye loading, cells were removed from the incubator and 10 μL 3× sample was added. Cells were incubated for 30 minutes at room temperature in the dark to equilibrate plate temperature. Vehicle concentration was 1%. • 4. Compound antagonist activity was measured on a FLIPR Tetra (MDS). Calcium mobilization was monitored for 2 minutes and 10 μL EC80 agonist in HBSS/20 mM Hepes was added to the cells 5 seconds into the assay.
as §5
Compounds were evaluated as 5-HT2A antagonists at 100 nM (one hundred nanomolar), or may be evaluated at a higher concentration. For research comparative purposes, a literature compound—(R)-1-(5-methoxy-1H-indol-1-yl)-N,N-dimethylpropan-2-amine (AAZ-A-154) (Cell 2021, 184, 2779-2792.e18)—was included in the screening assays. Additionally, 5-hydroxytryptamine/serotonin (5-HT) was included in the screening assay as a positive control agonist, and Altanserin HCl was included as a 5-HT2A antagonist positive control.

5-HT2B receptor = target: T2, 5-HT2B receptor (Homo sapiens, UniProt P41595); assay: Calcium mobilization assay, agonist format, 5-HT2B; format: cell-based; conditions: % activity relative to control ligand, read-out: 5-HT2B agonist efficacy @5 µM
T2 construct: host or cells: unnamed cell lines
T2 sequence (P41595 whole entry): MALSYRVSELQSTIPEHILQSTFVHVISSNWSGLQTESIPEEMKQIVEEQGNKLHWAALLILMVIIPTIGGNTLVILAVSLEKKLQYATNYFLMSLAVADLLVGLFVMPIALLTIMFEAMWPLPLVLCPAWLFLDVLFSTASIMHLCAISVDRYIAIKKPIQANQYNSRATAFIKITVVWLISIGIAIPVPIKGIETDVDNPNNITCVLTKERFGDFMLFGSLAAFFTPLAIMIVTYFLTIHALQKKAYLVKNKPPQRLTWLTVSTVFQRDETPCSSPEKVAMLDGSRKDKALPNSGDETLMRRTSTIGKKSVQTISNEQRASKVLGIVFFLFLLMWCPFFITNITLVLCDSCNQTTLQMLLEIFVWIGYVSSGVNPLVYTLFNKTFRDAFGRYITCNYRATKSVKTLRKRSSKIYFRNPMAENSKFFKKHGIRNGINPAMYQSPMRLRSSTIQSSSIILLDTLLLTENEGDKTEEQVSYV
Procedure: as §1, §2, §3, §4, §5

5-HT2C receptor = target: T3, 5-HT2C receptor (Homo sapiens, UniProt P28335); assay: Calcium mobilization assay, antagonist format, 5-HT2C; format: cell-based; conditions: @10 µM; agonist challenge at EC80
T3 construct: host or cells: unnamed cell lines
T3 sequence (P28335 33-458): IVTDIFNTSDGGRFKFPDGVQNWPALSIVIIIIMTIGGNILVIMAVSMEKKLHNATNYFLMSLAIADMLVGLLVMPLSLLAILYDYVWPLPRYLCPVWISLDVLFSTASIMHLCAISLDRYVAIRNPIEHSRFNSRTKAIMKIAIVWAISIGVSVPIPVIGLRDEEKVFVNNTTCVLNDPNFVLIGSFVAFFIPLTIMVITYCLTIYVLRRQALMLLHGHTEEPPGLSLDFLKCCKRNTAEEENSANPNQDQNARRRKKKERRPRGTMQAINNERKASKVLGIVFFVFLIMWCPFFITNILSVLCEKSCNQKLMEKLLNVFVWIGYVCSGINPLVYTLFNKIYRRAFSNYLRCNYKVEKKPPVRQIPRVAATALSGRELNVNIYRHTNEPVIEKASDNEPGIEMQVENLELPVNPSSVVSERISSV
Procedure: as §1, §2, §3, §6, §5
[…] For research comparative purposes, a literature compound—(R)-1-(5-methoxy-1H-indol-1-yl)-N,N-dimethylpropan-2-amine (AAZ-A-154) (Cell 2021, 184, 2779-2792.e18)—was included in the screening assays. Additionally, 5-hydroxytryptamine/serotonin (5-HT) was included in the screening assay as a positive control agonist, and SB242084 was used in the screening assay as a literature 5-HT2C antagonist positive control. […] Compounds 2, 3 and 93 each achieved greater than 75% antagonism of the 5-HT2C receptor, with compounds 3 and 93 achieving approximately 98% and 97% antagonism, respectively.

[3] = Metabolic stability in human liver microsomes; format: in vitro ADME; conditions: for half-life at 1 μM / microsomal CLint at 1 μM / CLint scaled at 1 μM: liver microsomes (pooled); for half-life at 1 μM: human liver microsomes 0.5 mg/mL, test compound 1.0 μM, 37° C., NADPH; for microsomal CLint at 1 μM: intrinsic clearance = 0.693/T1/2/mg microsome protein per mL, read-out: CLint(mic); for CLint scaled at 1 μM: human, scaled from CLint(mic) with 45 mg microsomal protein/g liver and 20 g liver/kg
Procedure: The test compound at 1.0 μM in singlet, or positive controls including Testosterone (CYP3A4 substrate), Propafenone (CYP2D6 substrate) or Diclofenac (CYP2C9 substrate) was incubated with the liver microsomes (Corning, Xenotech, or other credible vendor, pooled from multiple donors) at 0.5 mg/mL, respectively. The mixture was warmed up at 37° C. for 10 minutes and the reactions were initiated by the addition of a NADPH regenerating system (˜1.0 mM). The test compound incubated with the liver microsomes at 37° C. without the NADPH regenerating system served as the negative control reaction.
The reaction samples were removed at multiple time points (such as 0, 5, 15, 30, 45 and 60 minutes) and the sample without NADPH (NCF) was removed at 60 minutes. All the samples were immediately mixed with cold acetonitrile containing internal standard (IS) to stop the reaction.
Samples were analyzed by LC/MS/MS and the disappearance of test compound were assessed base on peak area ratios of analyte/IS (no standard curve). The microsomal intrinsic clearance and T1/2 values were calculated using the following equation: […]
The microsomal intrinsic clearance and T1/2 values were calculated using the following equation: […]
In these experiments the comparator compound was a suitable reference standard. In one embodiment the comparator compound was (R)-1-(5-methoxy-1H-indol-1-yl)-N,N-dimethylpropan-2-amine.

SMILES: COc1ccc2[nH]cc(CCN(C)C)c2c1 [Compound 5-MeO-DMT]
- head-twitch response compared to placebo (C57BL/6J mice): produced significant increases in head-twitch
- activation of the 5HT2A sensor assay in agonist mode (5HT2A sensor): activate the 5HT2A sensor assay in agonist mode

SMILES: COc1ccn2c(CC(C)N(C)C)cnc2c1 (racemic) [Compound 91, (R/S)-1-(7-methoxyimidazo[1,2-a]pyridin-3-yl)-N,N-dimethylpropan-2-amine]
- activation at 10 µM (5-HT2A receptor [1]): 0.6%
- inhibition at 0.1 µM (5-HT2A receptor [2]): -3.3%
- activation at 5 µM (5-HT2B receptor): 1%
- inhibition at 10 µM (5-HT2C receptor): 6.1%

SMILES: COc1ccc2c(ccn2C[C@@H](C)N(C)C)c1 [AAZ-A-154, (R)-1-(5-methoxy-1H-indol-1-yl)-N,N-dimethylpropan-2-amine, reference compound]
- half-life at 1 μM [3]: 1.42 h
- microsomal CLint at 1 μM ([3]; human liver microsomes): 16.4 µL/min/mg
- CLint scaled at 1 μM [3]: 14.8 mL/min/kg
- activation at 10 µM (5-HT2A receptor [1]): 1%
- inhibition at 0.1 µM (5-HT2A receptor [2]): 3.2%
- activation at 5 µM (5-HT2B receptor): -2.9%
- inhibition at 10 µM (5-HT2C receptor): 35%

SMILES: [2H]C([2H])([2H])[C@@]([2H])(N(C)C)C([2H])([2H])n1ccc2cc(OC)ccc21 [Compound 5, (2R)-1,1,1,2,3,3-hexadeuterio-3-(5-methoxyindol-1-yl)-N,N-dimethyl-propan-2-amine]
- difference in half-life and intrinsic clearance compared with reference compound (R)-1-(5-methoxy-1H-indol-1-yl)-N,N-dimethylpropan-2-amine ([3]; human liver microsomes, comment on Table 2): significant and beneficial differences in half-life and intrinsic clearance
- half-life at 1 μM [3]: 1.59 h
- microsomal CLint at 1 μM ([3]; human liver microsomes): 15 µL/min/mg
- CLint scaled at 1 μM [3]: 13.5 mL/min/kg
- activation at 10 µM (5-HT2A receptor [1]): 2%
- inhibition at 0.1 µM (5-HT2A receptor [2]): -2.7%
- activation at 5 µM (5-HT2B receptor): 3%
- inhibition at 10 µM (5-HT2C receptor): 38.1%
